Measurements as given in patent US9062028B2, “Bicyclic nitrogen containing heteroaryl TGR5 receptor modulators” (Bristol-Myers Squibb Company, priority 2011, dated 2015).
Where a name gives a salt, the structure may show the parent alone.

The compounds below were run against T1, recombinant human TGR5 (Homo sapiens, UniProt Q8TDU6) (assay: cAMP assay (cAMP accumulation, HTRF) in CHOK1 cells stably expressing TGR5). Conditions: CHOK1 cells stably expressing human TGR5, 30 minutes at RT, 1% DMSO.
T1 construct: expressed in transfected cells
T1 sequence (Q8TDU6 1-330): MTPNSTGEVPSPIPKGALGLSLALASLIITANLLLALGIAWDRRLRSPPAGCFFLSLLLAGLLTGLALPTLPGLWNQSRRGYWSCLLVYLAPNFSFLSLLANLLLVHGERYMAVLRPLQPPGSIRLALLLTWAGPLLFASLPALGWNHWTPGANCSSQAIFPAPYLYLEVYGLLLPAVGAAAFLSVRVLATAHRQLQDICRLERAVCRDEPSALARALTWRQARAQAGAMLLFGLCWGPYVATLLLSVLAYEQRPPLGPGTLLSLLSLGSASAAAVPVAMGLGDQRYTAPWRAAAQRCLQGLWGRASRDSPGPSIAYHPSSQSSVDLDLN
Format: cell-based
Method: The in vitro modulation of recombinant human TGR5 was determined as follows.
A human TGR5 expression construct of human TGR5 was integrated into the genome of a CHOK1 cell line (Invitrogen). Once a stable CHOK1 cell line was generated, the cells were incubated for 5-10 minutes in culture medium consisting of F-12 (Invitrogen#11765-047) supplemented with 10% fetal bovine serum.
On the day of the cAMP accumulation assay, cells stably expressing the […] TGR5 construct were centrifuged at 1000 rpm for 5 minutes. The medium was aspirated and the cells were resuspended in 5 mL of assay buffer (phosphate-buffered saline with Ca^2+ and Mg^2+, Invitrogen#14040). The cells were counted using 1:2 dilution and then adjusted to 0.4-0.5×10^6 cells/mL in assay buffer, if necessary. Isobutylmethylxanthine (IBMX, Sigma#I5879) was added via a 1:5000 dilution to make a 0.1 mM final concentration and then 10 μL of the media were transferred to each well of a 384 well poly-D-lysine coated solid white plate (BD #35-6661) pre-dotted with 100 nL of with the desired concentration of compound added from a concentrated stock dissolved in dimethyl sulfoxide (DMSO) to give a final concentration of 1% DMSO in the assay. The plates were covered and incubated for 30 minutes at RT. cAMP accumulation was measured using the CisBio homogeneous time resolved fluorescence (HTRF) assay kit (#62AM2PEC) following the manufacturer's protocol. Briefly, 5 μl each of the cAMP-HTRF fluorescence detection reagents were added to each well, and the samples were incubated for at least one hour at room temperature. Fluorescence was excited at 320 nm and measured at 665 and 620 nm using the Envision instrument (Perkin Elmer), the fluorescence ratio of 665/620 was calculated and converted to nanomolar concentrations of cAMP in each well by interpolation from a cAMP standard curve. The concentration-response curves and EC50 values were calculated with a four parameter logistic curve fit equation utilizing Excel/XLfit software (Microsoft and IDBS). The EC50 value was calculated as the concentration of agonist which increased the cAMP concentration to a value halfway between the baseline and the maximum.

Compound | EC50 [nM]
Cc1cccc(OCCCC(=O)N2CCCc3c(-c4cnc(OCC(=O)O)nc4)cccc32)c1C [Example 124, 2-(5-(1-(4-(2,3-Dimethylphenoxy)butanoyl)-1,2,3,4-tetrahydroquinolin-5-yl)pyrimidin-2-yloxy)acetic acid, TFA salt] | 5000
Cc1cccc(OCCCC(=O)N2CCCc3c(-c4cccc(COC(=O)NC(C)CC(=O)O)c4)cccc32)c1C (stereo not shown) [Example 275, 3-((3-(1-(4-(2,3-Dimethylphenoxy)butanoyl)-1,2,3,4-tetrahydroquinolin-5-yl)benzyloxy)carbonylamino) butanoic acid] | 608
Cc1cccc(OCCCC(=O)N2C[C@@H]3C[C@@H]3c3c(-c4cnn(Cc5cccc(NC(=O)NCCC(=O)O)c5)c4)cccc32)c1C (single isomer, unassigned) [Example 248] | 56
Cc1cccc(OCCCC(=O)N2CCCc3c(-c4cccc(COC(=O)N[C@H](CO)C(=O)O)c4)cccc32)c1C [Example 282, (R)-2-((3-(1-(4-(2,3-Dimethylphenoxy)butanoyl)-1,2,3,4-tetrahydroquinolin-5-yl)benzyloxy)carbonylamino)-3-hydroxypropanoic acid] | 664
Cc1cccc(OCCCC(=O)N2CCCc3c(-c4cnn(CCNC(=O)C5(C(=O)NCCS(=O)(=O)O)CC5)c4)cccc32)c1C [Example 110K, 2-(1-(2-(4-(1-(4-(2,3-Dimethylphenoxy)butanoyl)-1,2,3,4-tetrahydroquinolin-5-yl)-1H-pyrazol-1-yl)ethylcarbamoyl)cyclopropanecarboxamido) ethanesulfonic acid] | 5000
Cc1cccc(OCCCC(=O)N2CCCc3c(-c4cnn(C(C)(C)C(=O)NCCS(=O)(=O)O)c4)cccc32)c1C [Example 146Y, 2-(2-(4-(1-(4-(2,3-Dimethylphenoxy)butanoyl)-1,2,3,4-tetrahydroquinolin-5-yl)-1H-pyrazol-1-yl)-2-methylpropanamido)ethanesulfonic acid] | 2860
O=C(O)c1cccc(Cn2cc(-c3cccc4c3C3CC3CN4C(=O)OCCOc3c(F)cccc3F)cn2)c1 (stereo not shown) [Example 32A, 3-((4-(3-((2-(2,6-Difluorophenoxy)ethoxy)carbonyl)-1a,2,3,7b-tetrahydro-1H-cyclopropa[c]quinolin-7-yl)-1H-pyrazol-1-yl)methyl)benzoic acid] | 3400
Cc1cccc(OCCCC(=O)N2CCCOc3c(-c4cnn(Cc5ccc(C(=O)NCCC(=O)O)cc5)c4)cccc32)c1C [Example 142, 3-(4-((4-(5-(4-(2,3-Dimethylphenoxy)butanoyl)-2,3,4,5-tetrahydrobenzo[b][1,4]oxazepin-9-yl)-1H-pyrazol-1-yl)methyl)benzamido)propanoic acid] | 647
Cc1cccc(OCCCC(=O)N2CCCc3c(-c4cnn(Cc5cccc(S(=O)(=O)NCCS(=O)(=O)O)c5)c4)cccc32)c1C [Example 110T, 2-(3-((4-(1-(4-(2,3-Dimethylphenoxy)butanoyl)-1,2,3,4-tetrahydroquinolin-5-yl)-1H-pyrazol-1-yl)methyl)phenylsulfonamido) ethanesulfonic acid] | 609
Cc1cccc(OCCCC(=O)N2CCCc3c(-c4cccc(COC(=O)NCC(C)C(=O)O)c4)cccc32)c1C (stereo not shown) [Example 270, 3-((3-(1-(4-(2,3-Dimethylphenoxy)butanoyl)-1,2,3,4-tetrahydroquinolin-5-yl)benzyloxy)carbonylamino)-2-methylpropanoic acid] | 608
COC(=O)c1ccc(Cl)c(Cn2cc(-c3cccc4c3SCCN4C(=O)OCCOc3cccc(Cl)c3C)cn2)c1 [Example 367, 2-(3-Chloro-2-methylphenoxy)ethyl 8-(l-(2-chloro-5-(methoxycarbonyl)benzyl)-1H-pyrazol-4-yl)-2H-benzo[b][1,4]thiazine-4(3H)-carboxylate] | 186
Cc1c(Cl)cccc1OCCCC(=O)N1CC2CC2c2c(-c3cnn(Cc4cccc(C(=O)NCS(=O)(=O)O)c4)c3)cccc21 (stereo not shown) [Example 222, (3-((4-(3-(4-(3-Chloro-2-methylphenoxy)butanoyl)-1a,2,3,7b-tetrahydro-1H-cyclopropa[c]quinolin-7-yl)-1H-pyrazol-1-yl)methyl)benzamido)methanesulfonic acid] | 55
Cc1cccc(OCCCC(=O)N2CCCc3c(-c4cccc(COC(=O)N[C@@H](CC(=O)O)C(=O)O)c4)cccc32)c1C [Example 268, (S)-2-((3-(1-(4-(2,3-Dimethylphenoxy)butanoyl)-1,2,3,4-tetrahydroquinolin-5-yl)benzyloxy)carbonylamino)succinic acid] | 5020
Cc1cccc(OCCCC(=O)N2CCCc3c(-c4cccc(COC(=O)NC(CP(=O)(O)O)C(=O)O)c4)cccc32)c1C (stereo not shown) [Example 319, 2-((3-(1-(4-(2,3-Dimethylphenoxy)butanoyl)-1,2,3,4-tetrahydroquinolin-5-yl)benzyloxy)carbonylamino)-3-phosphonopropanoic acid] | 3820

The next lines start with the values.

EC50 [nM] | Compound
1340 | Cc1cccc(OCCCC(=O)N2C[C@@H]3C[C@@H]3c3c(-c4cnn(Cc5cccc(C(=O)N(CC(=O)O)CC(=O)O)c5)c4)cccc32)c1C [Example 882, 2,2′-(3-((4-((1aR,7bS)-3-(4-(2,3-Dimethylphenoxy)butanoyl)-1a,2,3,7b-tetrahydro-1H-cyclopropa[c]quinolin-7-yl)-1H-pyrazol-1-yl)methyl)benzoylazanediyl) diacetic acid]
2960 | Cc1cccc(OCCCC(=O)N2CCCc3c(-c4cnn(Cc5ccc[n+](C)c5)c4)cccc32)c1C [Example 467, 3-((4-(1-(4-(2,3-Dimethylphenoxy)butanoyl)-1,2,3,4-tetrahydroquinolin-5-yl)-1H-pyrazol-1-yl)methyl)-1-methylpyridinium]
1730 | Cc1cccc(OCCCC(=O)N2CCOc3c(-c4cnn(Cc5cccc(S(=O)(=O)N[C@@H](CCC[N+](C)(C)C)C(=O)O)c5)c4)cccc32)c1C [Example 505, (S)-4-Carboxy-4-(3-((4-(4-(4-(2,3-dimethylphenoxy)butanoyl)-3,4-dihydro-2H-benzo [b][1,4]oxazin-8-yl)-1H-pyrazol-1-yl)methyl)phenyl-sulfonamido)-N,N, N-trimethylbutan-1-aminium, TFA salt]
173 | Cc1cccc(OCCOC(=O)N2CCSc3c(-c4cnn(Cc5cccc(C(=O)NCCS(=O)(=O)O)c5)c4)cccc32)c1C [Example 597, 2-(3-((4-(4-((2-(2,3-Dimethylphenoxy)ethoxy)carbonyl)-3,4-dihydro-2H-benzo[b][1,4]thiazin-8-yl)-1H-pyrazol-1-yl)methyl)benzamido)ethanesulfonic acid]
1380 | Cc1cccc(OCCCC(=O)N2CCOc3c(-c4cnn(Cc5cccc(C(=O)N[C@@H](CC(=O)O)C(=O)O)c5Cl)c4)cccc32)c1C [Example 624, (S)-2-(2-Chloro-3-((4-(4-(4-(2,3-dimethylphenoxy)butanoyl)-3,4-dihydro-2H-benzo[b][1,4]oxazin-8-yl)-1H-pyrazol-1-yl)methyl)benzamido)succinic acid]
184 | Cc1cccc(OCCCC(=O)N2C[C@@H]3C[C@@H]3c3c(-c4cnn(Cc5cccc(C(=O)NC[C@@H](N)C(=O)O)c5)c4)cccc32)c1C [Example 887, (R)-2-Amino-3-(3-((4-((1aR,7bS )-3-(4-(2,3-dimethylphenoxy)butanoyl)-1a,2,3,7b-tetrahydro-1H-cyclopropa[c]quinolin-7-yl)-1H-pyrazol-1-yl)methyl)benzamido)propanoic acid]
46 | Cc1c(Cl)cccc1OCCCC(=O)N1CCCOc2c(-c3cnn(Cc4c(F)cc(C(=O)NCS(=O)(=O)O)cc4Cl)c3)cccc21 [Example 702, (3-Chloro-4-((4-(5-(4-(3-chloro-2-methylphenoxy)butanoyl)-2,3,4,5-tetrahydrobenzo[b][1,4]oxazepin-9-yl)-1H-pyrazol-1-yl)methyl)-5-fluorobenzamido)methanesulfonic acid]
188 | Cc1c(Cl)cccc1OCCCC(=O)N1CCCOc2c(-c3cnn(Cc4ccc(C(=O)NCS(=O)(=O)O)cc4F)c3)cccc21 [Example 719, (4-((4-(5-(4-(3-Chloro-2-methylphenoxy)butanoyl)-2,3,4,5-tetrahydrobenzo[b][1,4]oxazepin-9-yl)-1H-pyrazol-1-yl)methyl)-3-fluorobenzamido)methanesulfonic acid]
